Reference: patent publication US20030100550A1, “Carboxamide diazepin derivatives, preparation method, use as medicines, pharmaceutical compositions and use thereof” (priority 2002, published 2003)

How the values were obtained:
Format in all cases: biochemical
Cathepsin K = target: T1, Cathepsin K (Homo sapiens, UniProt P43235); assay: Study of Cathepsin K inhibition (fluorescence, Z-Val-arg-AMC); conditions: for IC50: substrate Z-Val-arg-AMC 20 μM, enzyme 5 ng/ml, 2H at ambient temperature, read-out: Cathepsin K IC50
T1 sequence (P43235 115-329): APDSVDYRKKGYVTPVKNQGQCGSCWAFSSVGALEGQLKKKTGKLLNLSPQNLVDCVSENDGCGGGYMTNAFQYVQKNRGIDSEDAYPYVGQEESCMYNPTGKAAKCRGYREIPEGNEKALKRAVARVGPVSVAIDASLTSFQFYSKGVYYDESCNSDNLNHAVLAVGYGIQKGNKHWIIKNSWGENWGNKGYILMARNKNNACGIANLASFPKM
Outline: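 Recombinant cathepsin K (5 ng/ml final) with 20 μM Z-Val-Arg-AMC in 100 mM sodium acetate, 5 mM EDTA, DTT, pH 5.5; compounds screened at 10 μM in duplicate, 2 h at ambient temperature, fluorescence ex 390/em 460 nm. % inhibition vs plate 0/100% controls; actives retested 50–0.5 μM for IC50.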

Papain = target: T2, Papain (Carica papaya, UniProt P00784); assay: Study of Papain inhibition (fluorescence); conditions: for IC50: enzyme 20 ng/ml, 30 minutes at ambient temperature; for Papain, percentage in parentheses beside IC50 value (% inhibition): printed beside 20 μM, meaning not explained
T2 construct: purchased Sigma
T2 sequence (P00784 134-345): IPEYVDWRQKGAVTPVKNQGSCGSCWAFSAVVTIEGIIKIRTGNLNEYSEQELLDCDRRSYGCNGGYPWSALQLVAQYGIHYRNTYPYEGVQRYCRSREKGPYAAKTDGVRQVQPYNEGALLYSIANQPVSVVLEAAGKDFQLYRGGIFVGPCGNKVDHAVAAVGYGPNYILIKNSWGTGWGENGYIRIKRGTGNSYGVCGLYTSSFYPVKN
Procedure: (§1) The products to be tested (10 mM) are diluted to […] in DMSO and distributed into Nunc polystyrene 96 well plates at a rate of 2 μl per well. Column 12 of the plate is reserved for the controls and therefore receives […] of DMSO (without products) per well. The plates are stored at −80° C. and thawed on the day of the experiment.
(§2) The products are diluted to 50 μM by adding 38 μl of reaction buffer: sodium acetate 100 mM, EDTA 5 mM, DTT […] pH 5.5. The addition as well as all the operations by pipette are carried out with a CybiWell 96 tip pipette. After mixing the solutions, each product is transferred into 2 wells (duplicates) of a Greiner black 384 well plate at a rate of 10 μl per well. Two 96-well plates can therefore be tested in a 384-well plate.
(§3) A solution of substrate at 50 μM, Z-Val-arg-AMC (Calbiochem), is prepared in the reaction buffer. The substrate, is then distributed into all the wells of the 384-well plate (20 μl per well).
(§4) A solution of Cathepsin K at 12.5 ng/ml is prepared in the reaction buffer and distributed into all the wells of the 384-well plate (20 μl per well) except for the 16 wells serving as 100% inhibition controls (column 23 and 24, lines I to P) which receive 20 μl of enzyme-free buffer.
(§5) The plates are then incubated 2H at ambient temperature, then read on Fluoroskan (Labsystems): excitation 390 nm; emission 460 nm
(§6) The final concentrations of each of the reagents are: products 10 μM, substrate 20 μM, enzyme 5 ng/ml.
(§7) The % inhibition for each of the products is calculated by using points at 0 and 100% inhibition of each plate as references. The products presenting a significant inhibition are then retested on a range of concentrations from 50 to 0.5 μM to determine an IC50.
Study of Papain Inhibition:
(§8) Protocol identical to that of Cathepsin K except for:
Papain (Sigma), solution at 50 ng/ml, final concentration 20 ng/ml
Incubation for 30 minutes at ambient temperature

Cathepsin B = target: T3, Cathepsin B (Homo sapiens, UniProt P07858); assay: Study of Cathepsin B inhibition (fluorescence, Z-arg-arg-AMC); conditions: for IC50: substrate Z-arg-arg-AMC 20 μM, enzyme 16 ng/ml, 1 hour at ambient temperature; for Cathepsin B, percentage in parentheses beside IC50 value (% inhibition): printed beside 20 μM, meaning not explained
T3 construct: purchased Calbiochem
Procedure: as §1, §2, §3, §4, §5, §6, §7
Study of Cathepsin B Inhibition:
as §8
Z-arg-arg-AMC substrate (Calbiochem), solution at 50 μM, final concentration 20 μM
Cathepsin B (Calbiochem), solution at 40 ng/ml, final concentration 16 ng/ml
Incubation for 1 hour at ambient temperature

SMILES | IC50 (Cathepsin K) | IC50 (Papain) | IC50 (Cathepsin B) | Cathepsin B, percentage in parentheses beside IC50 value (% inhibition) (Cathepsin B) | Papain, percentage in parentheses beside IC50 value (% inhibition) (Papain) | Cathepsin K, percentage in parentheses beside IC50 value (% inhibition) (Cathepsin K; printed beside 20 μM, meaning not explained)
CC(C)[C@H](NC(=O)[C@@H]1CCCN2C(=O)CC[C@H](NC(=O)Nc3ccc(Oc4ccccc4)cc3)C(=O)N12)C(=O)CSc1nc2ccccc2s1 [Example 390] | 20 µM | 6 µM | 19 µM | – | – | –
CC(C)(C)Oc1ccc(C[C@H](NC(=O)[C@@H]2CCCN3C(=O)CC[C@H](NC(=O)Nc4ccc(Oc5ccccc5)cc4)C(=O)N23)C(=O)C=[N+]=[N-])cc1 [Example 54, 9-[(9S)-[[(4-phenoxyphenyl)amino]carbonyl]amino]-N-[(2S)-4-diazo-1-[4-[(1,1-dimethyl)ethoxy]phenyl]-3-oxo-2-butyl]-6H-(1S)-pyridazino[1,2-a][1,2]diazepine-1-carboxamide] | – | 15 µM | – | 30% | – | –
C=CCOC(=O)CC[C@H](NC(=O)[C@@H]1CCCN2C(=O)CC[C@H](NC(=O)Nc3ccc(Oc4ccccc4)cc3)C(=O)N12)C(=O)COC(=O)c1c(Cl)cccc1Cl [Example 132, (2-propenyl)(4S)6-[(2,6-dichlorobenzoyl)oxy]-4-[[[(1S,9S)-9-[[[(4-phenoxyphenyl)amino]carbonyl]amino]-octahydro-6,10-dioxo-6H-pyridazino[1,2-a][1,2]diazepine-1-yl]carbonyl]amino]-5-oxo-hexanoate] | 20 µM | 6 µM | 2 µM | – | – | –
[N-]=[N+]=CC(=O)[C@H](Cc1ccccc1)NC(=O)[C@@H]1CCCN2C(=O)CC[C@H](NC(=O)Nc3ccc(Oc4ccccc4)cc3)C(=O)N12 [Example 161, 9-[(9S)[[(4-phenoxyphenyl)amino]carbonyl]amino]-N-((2S)-4-diazo-1-phenyl-3-oxo-2-butyl)-octahydro-6,10-dioxo-6H-(1S)-pyridazino[1,2-a][1,2]diazepine-1-carboxamide] | – | 19 µM | 9 µM | – | – | –
CC(C)[C@H](NC(=O)[C@@H]1CCCN2C(=O)CC[C@H](NC(=O)NCCc3cccs3)C(=O)N12)C(=O)CSc1nnnn1-c1ccccc1 [Example 397, 9-[(9S)-[[[2-(thien-2-yl)-ethyl]amino]carbonyl]amino]-N-[(3S)-1-[(1-phenyl-1H-tetrazol-5-yl)thio]-4-methyl-2-oxo-3-pentyl]-octahydro-6,10-dioxo-6H-(1S)-pyridazino [1,2-a][1,2]diazepine-1-carboxamide] | 20 µM | 18 µM | – | – | – | –
CC(C)[C@H](NC(=O)[C@@H]1CCCN2C(=O)CC[C@H](NC(=O)Nc3ccc(Oc4ccccc4)cc3)C(=O)N12)C(=O)CSc1nnnn1-c1ccccc1 [Example 389, 9-[(9S)-[[(4-phenoxyphenyl)amino]carbonyl]amino]-N-[(3S)-1-[(1-phenyl-1H-tetrazol-5-yl)thio]-4-methyl-2-oxo-3-pentyl]-octahydro-6,10-dioxo-6H-(1S)-pyridazino [1,2-a][1,2]diazepine-1-carboxamide] | 20 µM | 6 µM | – | – | – | –
C=CCOC(=O)CC[C@H](NC(=O)[C@@H]1CCCN2C(=O)CC[C@H](NC(=O)Nc3ccc(Oc4ccccc4)cc3)C(=O)N12)C(=O)CSCc1ccc(OC)cc1 [Example 130, (2-propenyl)(4S)6-[[(4-methoxyphenyl)methyl]thio]-4-[[[(1S,9S)-9-[[[(4-phenoxyphenyl)amino]carbonyl]amino]-octahydro-6,10-dioxo-6H-pyridazino[1,2-a][1,2]diazepine-1-yl]carbonyl]amino]-5-oxo-hexanoate] | 20 µM | 6 µM | – | – | – | –
O=C(NCCc1cccs1)N[C@H]1CCC(=O)N2CCC[C@@H](C(=O)N[C@@H](Cc3ccccc3)C(=O)CSc3nnnn3-c3ccccc3)N2C1=O [Example 220, 9-[(9S)-[[[2-(thien-2-yl)-ethyl]amino]carbonyl]amino]-N-[(2S)-1-phenyl-4-[(1-phenyl-1H-tetrazol-5-yl)thio]-3-oxo-2-butyl]-octahydro-6,10-dioxo-6H-(1S)-pyridazino [1,2-a][1,2]diazepine-1-carboxamide] | 20 µM | 6 µM | – | – | – | –
O=C(NCCc1cccs1)N[C@H]1CCC(=O)N2CCC[C@@H](C(=O)N[C@@H](Cc3ccccc3)C(=O)COC(=O)c3c(Cl)cccc3Cl)N2C1=O [Example 224, 9-[(9S)-[[[2-(thien-2-yl)-ethyl]amino]carbonyl]amino]-N-[(2S)-1-phenyl-4-[(-2,6-dichlorobenzoyl)oxy]-3-oxo-2-butyl]-octahydro-6,10-dioxo-6H-(1S)-pyridazino[1,2-a][1,2]diazepine-1-carboxamide] | 20 µM | 8 µM | 9 µM | – | – | –
C[C@H](NC(=O)[C@@H]1CCCN2C(=O)CC[C@H](NC(=O)NCCc3cccs3)C(=O)N12)C(=O)C=[N+]=[N-] [Example 172, 9-[(9S)-[[[3-(thien-2-yl)-ethyl]amino]carbonyl]amino]-N-((2S)-4-diazo-3-oxo-2-butyl)-octahydro-6,10-dioxo-6H-(1S)-pyridazino[1,2-a][1,2]diazepine-1-carboxamide] | 20 µM | – | – | 20 (20%) | 10% | –
C=CCOC(=O)CC[C@H](NC(=O)[C@@H]1CCCN2C(=O)CC[C@H](NC(=O)Nc3ccc(Oc4ccccc4)cc3)C(=O)N12)C(=O)COC(=O)c1ccncc1 [Example 131, (2-propenyl)(4S)6-[[(4-pyridinyl)carbonyl]oxy]-4-[[[(1S,9S)-9-[[[(4-phenoxyphenyl)amino]carbonyl]amino]-octahydro-6,10-dioxo-6H-pyridazino[1,2-a][1,2]diazepine-1-yl]carbonyl]amino]-5-oxo-hexanoate] | 7 µM | 9 µM | – | – | – | –
O=C(Nc1ccc(Oc2ccccc2)cc1)N[C@H]1CCC(=O)N2CCC[C@@H](C(=O)N[C@@H](Cc3ccccc3)C(=O)CSc3nnnn3-c3ccccc3)N2C1=O [Example 211, 9-[(9S)-[[(4-phenoxyphenyl)amino]carbonyl]amino]-N-[(2S)-1-phenyl-4-[(1-phenyl-1H-tetrazol-5-yl)thio]-3-oxo-2-butyl]-octahydro-6,10-dioxo-6H-(1S)-pyridazino[1,2-a][1,2]diazepine-1-carboxamide] | 20 µM | 6 µM | – | – | – | –
O=C(NCCc1cccs1)N[C@H]1CCC(=O)N2CCC[C@@H](C(=O)N[C@@H](Cc3ccccc3)C(=O)CSc3nc4ccccc4s3)N2C1=O [Example 221, 9-[(9S)-[[[2-(thien-2-yl)-ethyl]amino]carbonyl]amino]-N-[(2S)-1-phenyl-4-[(2-benzothiazolyl)thio]-3-oxo-2-butyl]-octahydro-6,10-dioxo-6H-(1S)-pyridazino[1,2-a][1,2]diazepine-1-carboxamide] | 20 µM | 7 µM | – | – | – | –
COC(=O)CCCC(=O)OCC(=O)[C@H](Cc1ccccc1)NC(=O)[C@@H]1CCCN2C(=O)CC[C@H](NC(=O)Nc3ccc(Oc4ccccc4)cc3)C(=O)N12 [Example 217] | 20 µM | 7 µM | – | – | – | 30%
C=CCOC(=O)CC[C@H](NC(=O)[C@@H]1CCCN2C(=O)CCC[C@H](NC(=O)NC3CCCCC3)C(=O)N12)C(=O)COC(=O)c1c(Cl)cccc1Cl [Example 122, (2-propenyl)(4S)6-[(2,6-dichlorobenzoyl)oxy]-4-[[[(1S,9S)-9-[[(cyclohexylamino)carbonyl]amino]-octahydro-6,10-dioxo-o-6H-pyridazino[1,2-a][1,2]diazepine-1-yl]carbonyl]amino]-5-oxo-hexanoate] | 18 µM | – | 0.7 µM | – | 45% | –
